Tests used:
Insulin Receptor (InsR) = molecular target: T1, Insulin Receptor (InsR) (Homo sapiens, UniProt P06213); assay: ADP-Glo kinase assay InsR; format: biochemical; conditions: mean ± SEM (n = 3)
T1 construct: purchased Promega V3901
Description: (§1) The kinase assays were performed and quantified according to the manufacturer’s instructions using the ADP-Glo™ Kinase Assay Kit for FAK (Promega, V1971), PYK2 (Promega, V4083) and InsR (Promega, V3901). Each kinase reaction mixture was prepared to contain the compounds of interest. After thorough pipetting, 25 μL of the mixture was added to each well and incubated for 1 h at room temperature. Subsequently, 25 μL of ADP-Glo reagent was added, followed by a 40 m incubation at room temperature. Next, 50 μL of the kinase detection reagent was added, and the mixture was incubated for an additional 30 m at room temperature. Luminescence was measured using the Tecan Spark 10M (Integration time: 1 s) (Männedorf, Switzerland).

[1] = tested on: MDA-MB-231, 4T1, and Hs578T cells; assay: 3D cell invasion assay; format: cell-based; conditions: 1 µM, 72 h, compared to VS-6063 and GSK 2256098
Description: Cells were added to an ultra-low 96-well round-bottom plate at a density of 5 × 10^3 cells/well and cultured for 3 days to form spheroids. The medium was removed, and a mixture of neutralized Type I Collagen and Matrigel was added to the wells. After 1 h of incubation, compound concentrations (2×) in 100 μL of solution were added per well. The plate was then incubated for 72 h. Relative invasion was quantified based on the following formula using the microscope and imaging software ImageJ (Version 2.1.0/1.54e, National Institutes of Health, Bethesda, MD, USA):Relative invasion = (total area of compound treated group − spheroid area of compound treated group/(total area of control − spheroid area of control)(1)

MDA-MB-231 cells = assay: 2D cell invasion assay (Boyden chamber, Matrigel); format: cell-based, human; conditions: 5 μM, 48 h, Matrigel-coated Boyden chamber
Description: Cell invasion capacity was analyzed using the Boyden chamber assay. The 24-well Boyden chambers with Matrigel-coated filters (8 μm pore size) were obtained from Becton-Dickinson (San Diego, CA, USA). Cells treated with vehicle or FAK inhibitors (SJP1602, VS-6063, GSK2256098) at a concentration of 5 μM were resuspended in serum-free media and 5 × 10^5 cells were added to the Matrigel-coated upper compartment of the invasion chambers. Fresh culture medium with 5% FBS was added to the lower compartment. After 48 h, cells on the upper side of the filter were removed using cotton swabs. The underside of the filter was fixed in 100% methanol, washed in PBS, and stained using crystal violet. Cells that invaded the Matrigel were analyzed using a microscope (Nikon, TE2000). Image analysis was performed using the color analysis function in Adobe Photoshop 2021 (Version 22.4.2, Adobe, Adobe (San Jose, CA, USA)). Quantitative data were obtained from color measurement records in Adobe Photoshop 2021.

PYK2 = molecular target: T2, PYK2 (Homo sapiens, UniProt Q14289); assay: ADP-Glo kinase assay PYK2; format: biochemical; conditions: mean ± SEM (n = 3)
T2 construct: purchased Promega V4083
T2 sequence (Q14289 whole entry): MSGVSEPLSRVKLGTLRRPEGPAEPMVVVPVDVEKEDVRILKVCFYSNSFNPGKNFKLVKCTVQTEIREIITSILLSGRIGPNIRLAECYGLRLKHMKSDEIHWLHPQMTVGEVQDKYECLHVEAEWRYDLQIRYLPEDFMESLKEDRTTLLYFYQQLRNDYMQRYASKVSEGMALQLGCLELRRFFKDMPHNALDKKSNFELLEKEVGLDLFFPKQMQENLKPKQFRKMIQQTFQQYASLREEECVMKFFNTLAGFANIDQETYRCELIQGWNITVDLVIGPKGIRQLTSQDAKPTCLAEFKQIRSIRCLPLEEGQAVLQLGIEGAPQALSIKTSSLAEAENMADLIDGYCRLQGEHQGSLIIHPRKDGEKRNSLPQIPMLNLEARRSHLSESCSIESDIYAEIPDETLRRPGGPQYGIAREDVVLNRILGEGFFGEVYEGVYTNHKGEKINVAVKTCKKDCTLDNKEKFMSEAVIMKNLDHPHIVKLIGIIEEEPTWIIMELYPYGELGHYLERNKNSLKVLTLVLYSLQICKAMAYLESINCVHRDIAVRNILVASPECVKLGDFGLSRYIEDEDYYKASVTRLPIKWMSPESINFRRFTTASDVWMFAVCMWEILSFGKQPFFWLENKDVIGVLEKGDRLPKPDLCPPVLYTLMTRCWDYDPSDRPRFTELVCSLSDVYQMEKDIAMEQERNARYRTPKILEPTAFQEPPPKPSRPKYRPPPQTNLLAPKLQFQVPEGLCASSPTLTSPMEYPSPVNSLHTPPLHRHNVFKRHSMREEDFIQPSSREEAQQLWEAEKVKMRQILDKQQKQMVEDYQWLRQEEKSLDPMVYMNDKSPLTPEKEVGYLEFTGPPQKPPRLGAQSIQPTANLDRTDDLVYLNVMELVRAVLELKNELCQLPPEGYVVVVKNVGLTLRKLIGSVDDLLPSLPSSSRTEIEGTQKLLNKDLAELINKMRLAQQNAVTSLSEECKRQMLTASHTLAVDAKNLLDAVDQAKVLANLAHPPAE
Description: as §1

[2] = Toxicity and body weight in xenograft mice; conditions: mouse xenograft experiments, 20-80 mg/kg po daily
Description: Upon establishment of tumors, with an average tumor volume reaching approximately 100 mm^3, mice were grouped and subjected to daily oral dosing. […] The duration of drug administration was defined for 2 weeks based on the growth rate of the vehicle group of each xenografted tumor. The tumor volume was measured three times a week for potency measurement, and the body weight of mice was also measured three times a week for toxicity evaluation in vivo.

[3] = Cytotoxicity on normal cell line HEK293T; format: cell-based; conditions: human, HEK293T cells (normal cell line); read-out: Cytotoxicity on Normal Cell Lines IC50

T1 sequence (P06213 28-1382): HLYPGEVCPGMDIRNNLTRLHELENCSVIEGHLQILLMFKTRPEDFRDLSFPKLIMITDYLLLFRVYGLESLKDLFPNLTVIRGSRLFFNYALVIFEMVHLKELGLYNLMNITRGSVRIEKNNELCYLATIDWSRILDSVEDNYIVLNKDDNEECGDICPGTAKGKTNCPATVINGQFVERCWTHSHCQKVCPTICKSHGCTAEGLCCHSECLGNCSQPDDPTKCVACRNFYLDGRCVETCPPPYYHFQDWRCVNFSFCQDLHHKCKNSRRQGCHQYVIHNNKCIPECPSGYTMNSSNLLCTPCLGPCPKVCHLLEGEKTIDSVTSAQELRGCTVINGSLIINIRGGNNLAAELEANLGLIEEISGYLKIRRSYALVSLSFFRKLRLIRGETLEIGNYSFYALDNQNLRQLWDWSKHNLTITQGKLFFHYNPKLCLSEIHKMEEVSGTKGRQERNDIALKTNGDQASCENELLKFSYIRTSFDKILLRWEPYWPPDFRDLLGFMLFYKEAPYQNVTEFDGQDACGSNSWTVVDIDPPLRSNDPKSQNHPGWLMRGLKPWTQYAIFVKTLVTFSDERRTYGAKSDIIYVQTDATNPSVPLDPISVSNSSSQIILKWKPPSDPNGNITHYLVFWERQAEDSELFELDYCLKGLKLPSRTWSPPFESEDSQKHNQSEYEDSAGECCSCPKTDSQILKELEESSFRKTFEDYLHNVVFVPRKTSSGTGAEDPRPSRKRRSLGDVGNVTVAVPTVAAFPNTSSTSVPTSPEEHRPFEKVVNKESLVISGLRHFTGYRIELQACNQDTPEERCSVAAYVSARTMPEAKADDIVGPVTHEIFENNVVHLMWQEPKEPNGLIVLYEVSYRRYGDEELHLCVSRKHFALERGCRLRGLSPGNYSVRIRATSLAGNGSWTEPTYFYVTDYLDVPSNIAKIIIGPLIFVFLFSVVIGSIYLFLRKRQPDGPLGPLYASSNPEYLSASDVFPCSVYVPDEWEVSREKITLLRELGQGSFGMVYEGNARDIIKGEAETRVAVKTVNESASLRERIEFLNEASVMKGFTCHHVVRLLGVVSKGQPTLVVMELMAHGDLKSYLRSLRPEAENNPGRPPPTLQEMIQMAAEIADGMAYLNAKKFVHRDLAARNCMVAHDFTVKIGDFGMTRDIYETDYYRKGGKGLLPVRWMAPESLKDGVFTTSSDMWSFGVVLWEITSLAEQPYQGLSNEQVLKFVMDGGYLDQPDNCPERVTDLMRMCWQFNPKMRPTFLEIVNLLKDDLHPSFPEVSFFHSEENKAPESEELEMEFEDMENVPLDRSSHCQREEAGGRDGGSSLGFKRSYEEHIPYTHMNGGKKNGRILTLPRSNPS

## CNC(=O)c1cccc(C)c1Nc1nc(Nc2ccc(N3CCN(C4C5CC6CC4CC(O)(C6)C5)CC3)cc2OC)ncc1C(F)(F)F (stereo not drawn) [SJP1602, 2-((2-((4-(4-((2s,5r)-5-hydroxyadamantan-2-yl)piperazin-1-yl)-2-methoxyphenyl)amino)-5-(trifluoromethyl)pyrimidin-4-yl)amino)-N,3-dimethylbenzamide]
Insulin Receptor (InsR)
  IC50: 1170 ± 60.1 nM
[1]
  TNBC cell invasion (3D): significantly inhibits
MDA-MB-231 cells
  invasion of MDA-MB-231 cells: markedly inhibited
PYK2
  IC50: 24.7 ± 0.919 nM
[2]
  signs of toxicity or weight loss in xenograft mice: no signs of toxicity or significant weight loss
[3]
  IC50: > 10000 nM
